Measurements as given in ChEMBL document CHEMBL1201862, “PubChem BioAssay data set” (2004).
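Exposure lasted 48 hours, with cells grown in 96-well plates and compounds tested at five concentrations. Here, GI50 denotes the concentration required for 50% inhibition of growth.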 Calls of active or inactive are those of the source. Rule as the data show it: active = GI50 up to about 1.1 µM and inactive = higher.

Assays:
Experiment in all cases: growth of human tumour cells (NCI), 48 h
TK-10 = tested on: TK-10
SK-MEL-5 = tested on: SK-MEL-5
A549 = tested on: A549
HCT-116 = tested on: HCT-116
MDA-N = tested on: MDA-N
SW-620 = tested on: SW-620
U-251 = tested on: U-251
RXF 393 = tested on: RXF 393
SF-268 = tested on: SF-268
DU-145 = tested on: DU-145
HT-29 = tested on: HT-29
NCI-H522 = tested on: NCI-H522
Hs-578T = tested on: Hs-578T
CCRF-CEM = tested on: CCRF-CEM
IGROV-1 = tested on: IGROV-1
LOX IMVI = tested on: LOX IMVI
OVCAR-5 = tested on: OVCAR-5
A498 = tested on: A498
MOLT-4 = tested on: MOLT-4
SF-295 = tested on: SF-295
UACC-257 = tested on: UACC-257
SF-539 = tested on: SF-539
NCI-H23 = tested on: NCI-H23
OVCAR-3 = tested on: OVCAR-3
MDA-MB-435 = tested on: MDA-MB-435
MDA-MB-231 = tested on: MDA-MB-231
T47D = tested on: T47D
NCI-H226 = tested on: NCI-H226
COLO 205 = tested on: COLO 205
RPMI-8226 = tested on: RPMI-8226
OVCAR-8 = tested on: OVCAR-8
BT-549 = tested on: BT-549
UACC-62 = tested on: UACC-62
PC-3 = tested on: PC-3
EKVX = tested on: EKVX
HOP-92 = tested on: HOP-92
KM12 = tested on: KM12
ACHN = tested on: ACHN
SNB-19 = tested on: SNB-19
HL-60 = tested on: HL-60
NCI/ADR-RES = tested on: NCI/ADR-RES
SK-MEL-2 = tested on: SK-MEL-2
NCI-H460 = tested on: NCI-H460
UO-31 = tested on: UO-31
SR = tested on: SR
786-0 = tested on: 786-0
SN12C = tested on: SN12C
CAKI-1 = tested on: CAKI-1
M14 = tested on: M14
OVCAR-4 = tested on: OVCAR-4
HCT-15 = tested on: HCT-15
SNB-75 = tested on: SNB-75
K562 = tested on: K562
MCF7 = tested on: MCF7
SK-OV-3 = tested on: SK-OV-3
HCC 2998 = tested on: HCC 2998
Malme-3M = tested on: Malme-3M
HOP-62 = tested on: HOP-62

## COc1ccc(NC=O)c(C(O)CCNC(C)=O)c1 (stereo unspecified)
TK-10
  GI50: > 100 µM (inactive)
SK-MEL-5
  GI50: > 100 µM (inactive)
A549
  GI50: > 100 µM (inactive)
HCT-116
  GI50: > 100 µM (inactive)
MDA-N
  GI50: > 100 µM (inactive)
SW-620
  GI50: > 100 µM (inactive)
U-251
  GI50: > 100 µM (inactive)
RXF 393
  GI50: > 100 µM (inactive)
SF-268
  GI50: > 100 µM (inactive)
DU-145
  GI50: > 100 µM (inactive)
HT-29
  GI50: > 100 µM (inactive)
NCI-H522
  GI50: > 100 µM (inactive)
Hs-578T
  GI50: > 100 µM (inactive)
CCRF-CEM
  GI50: > 100 µM (inactive)
IGROV-1
  GI50: > 100 µM (inactive)
LOX IMVI
  GI50: > 100 µM (inactive)
OVCAR-5
  GI50: > 100 µM (inactive)
A498
  GI50: > 100 µM (inactive)
MOLT-4
  GI50: > 100 µM (inactive)
SF-295
  GI50: > 100 µM (inactive)
UACC-257
  GI50: > 100 µM (inactive)
SF-539
  GI50: > 100 µM (inactive)
NCI-H23
  GI50: > 100 µM (inactive)
OVCAR-3
  GI50: > 100 µM (inactive)
MDA-MB-435
  GI50: > 100 µM (inactive)
MDA-MB-231
  GI50: > 100 µM (inactive)
T47D
  GI50: > 100 µM (inactive)
NCI-H226
  GI50: > 100 µM (inactive)
COLO 205
  GI50: > 100 µM (inactive)
RPMI-8226
  GI50: > 100 µM (inactive)
OVCAR-8
  GI50: > 100 µM (inactive)
BT-549
  GI50: > 100 µM (inactive)
UACC-62
  GI50: > 100 µM (inactive)
PC-3
  GI50: > 100 µM (inactive)
EKVX
  GI50: > 100 µM (inactive)
HOP-92
  GI50: > 100 µM (inactive)
KM12
  GI50: > 100 µM (inactive)
ACHN
  GI50: > 100 µM (inactive)
SNB-19
  GI50: > 100 µM (inactive)
HL-60
  GI50: > 100 µM (inactive)
NCI/ADR-RES
  GI50: > 100 µM (inactive)
SK-MEL-2
  GI50: > 100 µM (inactive)
NCI-H460
  GI50: > 100 µM (inactive)
UO-31
  GI50: > 100 µM (inactive)
SR
  GI50: > 100 µM (inactive)
786-0
  GI50: > 100 µM (inactive)
SN12C
  GI50: > 100 µM (inactive)
CAKI-1
  GI50: > 100 µM (inactive)
M14
  GI50: > 100 µM (inactive)
OVCAR-4
  GI50: > 100 µM (inactive)
HCT-15
  GI50: > 100 µM
SNB-75
  GI50: > 100 µM (inactive)
K562
  GI50: > 100 µM (inactive)
MCF7
  GI50: > 100 µM (inactive)
SK-OV-3
  GI50: > 100 µM (inactive)

## Clc1cc2nn(C3CCCCO3)nc2cc1Cl (stereo unspecified)
TK-10
  GI50: > 100 µM (inactive)
SK-MEL-5
  GI50: > 100 µM (inactive)
A549
  GI50: > 100 µM (inactive)
HCT-116
  GI50: > 100 µM (inactive)
MDA-N
  GI50: > 100 µM (inactive)
U-251
  GI50: > 100 µM (inactive)
RXF 393
  GI50: > 100 µM (inactive)
DU-145
  GI50: > 100 µM (inactive)
HT-29
  GI50: > 100 µM (inactive)
NCI-H522
  GI50: > 100 µM (inactive)
Hs-578T
  GI50: > 100 µM (inactive)
CCRF-CEM
  GI50: > 100 µM (inactive)
IGROV-1
  GI50: > 100 µM (inactive)
OVCAR-5
  GI50: > 100 µM (inactive)
MOLT-4
  GI50: > 100 µM (inactive)
SF-295
  GI50: > 100 µM (inactive)
HCC 2998
  GI50: > 100 µM (inactive)
UACC-257
  GI50: > 100 µM (inactive)
SF-539
  GI50: > 100 µM (inactive)
NCI-H23
  GI50: > 100 µM (inactive)
OVCAR-3
  GI50: > 100 µM (inactive)
MDA-MB-435
  GI50: > 100 µM (inactive)
Malme-3M
  GI50: > 100 µM (inactive)
MDA-MB-231
  GI50: > 100 µM (inactive)
T47D
  GI50: > 100 µM (inactive)
NCI-H226
  GI50: > 100 µM (inactive)
COLO 205
  GI50: > 100 µM (inactive)
OVCAR-8
  GI50: > 100 µM (inactive)
BT-549
  GI50: > 100 µM (inactive)
UACC-62
  GI50: > 100 µM (inactive)
PC-3
  GI50: > 100 µM (inactive)
EKVX
  GI50: > 100 µM (inactive)
KM12
  GI50: > 100 µM (inactive)
ACHN
  GI50: > 100 µM (inactive)
SNB-19
  GI50: > 100 µM (inactive)
NCI/ADR-RES
  GI50: > 100 µM (inactive)
SK-MEL-2
  GI50: > 100 µM (inactive)
NCI-H460
  GI50: > 100 µM (inactive)
UO-31
  GI50: > 100 µM (inactive)
SR
  GI50: > 100 µM (inactive)
786-0
  GI50: > 100 µM (inactive)
SN12C
  GI50: > 100 µM (inactive)
CAKI-1
  GI50: > 100 µM (inactive)
M14
  GI50: > 100 µM (inactive)
OVCAR-4
  GI50: > 100 µM (inactive)
HCT-15
  GI50: > 100 µM
SNB-75
  GI50: > 100 µM (inactive)
HOP-62
  GI50: > 100 µM (inactive)
K562
  GI50: > 100 µM (inactive)
MCF7
  GI50: > 100 µM (inactive)
SK-OV-3
  GI50: > 100 µM (inactive)
